Several values for one entry are separate records, joined by “and”; a condition that tells them apart may be missing. Identical values can stand only once. Some results are limits rather than exact numbers.

As a reminder, the IC50 is the concentration that gives 50% inhibition.

The test system of one data set is MDA-MB-231. Briefly: In vitro cytotoxicity (MTT) assay. In kind it is cell-based, human. As to the method: The effect of andrographolide on cell viability was measured by MTT assay following the method by Mosmann. Briefly, the cells (1 × 10^5 cells per ml) were seeded in a 96 well micro titer plate (100 μl per well) with replications. Treatment was conducted for 24 and 48 h with different concentrations (0, 5, 7.5, 15, 30, 45, 60, 75 and 100 μM) of andrographolide. After incubation, 20 μl of 5 mg/ml MTT stock solution was added to each well and incubated for 4 h at 37 °C. The obtained formazan crystals were solubilized with DMSO and the absorbance was measured at 570 nm using a microplate reader (SpectraMax M5, Molecular Devices, USA). Cell viability (%) has been shown as a ratio of absorbance (A570) in treated cells to absorbance in control cells (0.1 % DMSO) (A570). The IC50 was calculated as the concentration of sample needed to reduce 50 % of the absorbance in comparison to the DMSO-treated control. Percent cell viability was calculated following the equation: Cellviability%=A570Sample/A570ControlDMSO×100

For another data set, the system named is MCF-7 cells. Briefly: Annexin V-FITC/PI flow cytometry (apoptosis). Conditions: MCF-7, IC50 concentration, 48 h. In kind it is cell-based, human. As to the method:
(§1) In order to examine phosphatidyl serine externalization from inner to the outer cell membrane, a characteristic feature of apoptotic cell death and to quantify the percentage of apoptotic cell death, cultured MDA-MB-231 cells (1 × 10^6) were treated with 50 % inhibitory concentration (30 μM) of andrographolide for 24 h, 36 h and 48 h. Cells were resuspended in 1X binding buffer, labelled with fluorescein isothiocyanate (FITC)-conjugated Annexin V (200 μg/ml) and PI (30 μg/ml), incubated for 15 min at room temperature in the dark and analyzed by flow cytometry using BD FACSVerse™ (Becton Dickinson, USA). Data were analyzed using FACSuite™ software. For each set, total of 10,000 events were recorded. Similar experiment was also performed using MCF-7 cells treated with andrographolide for 48 h.
For orientation: Flow cytometry measures light scatter and fluorescence of single cells or particles in a stream.

Another data set deals with MDA-MB-231 cells. Briefly: Annexin V-FITC/PI flow cytometry (apoptosis). It is filed as cell-based, human. Conditions: 30 μM. The method, then:
as §1

The subject of another data set is platelets. On the set-up: method as in PMID 21822619; dose or concentration left out as unconfirmed. Conditions: cited from earlier work.

For `C=C1CC[C@@H]2[C@](C)(CO)[C@H](O)CC[C@@]2(C)[C@@H]1C/C=C1/C(=O)OC[C@H]1O` [andrographolide], the IC50 stood at 52 µM with MDA-MB-231 (Homo sapiens, MDA-MB-231, 24 h); 30 µM with MDA-MB-231 (Homo sapiens, MDA-MB-231, 48 h); 30.3 µM in the data set with MDA-MB-231 (MDA-MB-231, 48 h). In addition, the “percentage of apoptotic cells” value in the data set on MCF-7 cells was determined as 41.17%. Moreover, the results for the “early apoptotic cells (annexin V+ and PI-)” value in the data set on MDA-MB-231 cells (24 h), with MDA-MB-231 cells (36 h) and in the data set on MDA-MB-231 cells (48 h) were 16.76 ± 0.51%, 12.23 ± 0.29% and 5.89 ± 0.67%, respectively. The “late apoptotic cells (annexin V+ and PI+)” value is 32.2 ± 2.2% and 32% in the data set on MDA-MB-231 cells (24 h); 60.06 ± 0.6% in the data set with MDA-MB-231 cells (36 h). The “cell population in necrotic phase” value in the data set on MDA-MB-231 cells (all the treated conditions (24, 36, 48 h)) was below 1%. Further, the “cytotoxic effect on platelets” value in the data set with platelets is “no cytotoxic effect”.

The values above are taken from publication PMC4833932, “Cytotoxicity and cell cycle arrest induced by andrographolide lead to programmed cell death of MDA-MB-231 breast cancer cell line” (Journal of Biomedical Science, 2016).
